In patent publication US6350596B2, “Method for producing L-phenylalanine” (Ajinomoto Co., Inc., priority 2000, dated 2002):

What was measured:
[1] = test system: Methylophilus methylotrophus AS-1 (NCIB 10515; ATCC 53528); assay: Sensitivity of the wild type strain to phenylalanine analogs on 121(Fe2)-agar medium; format: cell-based; settings: for amount at which the wild type strain (strain AS-1) can not grow: usually, under the conditions described in Examples
Source text: To be resistant to an phenylalanine analog means that the bacterium can grow in the presence of the phenylalanine analog in the amount at which the wild type strain (for example, strain AS-1) can not grow. The amount varies depending on the kinds of the phenylalanine analog.
To be resistant to L-phenylalanine means that the bacterium can grow in the presence of L-phenylalanine in the amount at which the wild type strain (for example, strain AS-1) can not grow. The amount is usually 8 g/l under the conditions described in Examples mentioned below.
To be resistant to cinnamic acid means that the bacterium can grow in the presence of cinnamic acid in the amount at which the wild type strain (for example, strain AS-1) can not grow. The amount is usually 50 mg/l under the conditions described in Examples mentioned below.
The 10^8 c.f.u./ml of M. methylotrophus bacteria were plated and grown at +30° C. for 3 days. […] The several crystals of N-methyl-N′-nitro-N-nitrosoguanidin (hereinafter abbreviated to NG) mutagen was placed in the middle of the plate. After 4-5 days at 30° C., the plates were analyzed.

[2] = test system: Methylophilus methylotrophus pFp^R phe^R mutant strain No. 227-16; format: cell-based
Source text: The new mutants which were resistant to 1 g/L of meta-fluorophenylalanine (hereinafter abbreviated to mFp^R) were isolated from the strain No. 227-16 after NG-mutagenesis as it was described above.

[3] = test system: M. methylotrophus pFp^R mutant No. 227; assay: Growth of pFp^R mutant on agarized 121-medium with L-phenylalanine; format: cell-based, Methylophilus methylotrophus; settings: added into the agarized 121-medium

Structure (SMILES) | amount at which the wild type strain (strain AS-1) can not grow [1] | concentration to which the strain was resistant ([2]; strain No. 227-16) | concentration that totally inhibited the growth [3] | growth of the strain in the presence of the analog ([2]; strain No. 227-16, 1 g/l of the analog) | concentration that totally inhibited the growth of the bacteria lawn ([1]; 121(Fe2)-agar medium, 10^8 c.f.u./ml plated, +30° C., 3 days)
O=C(O)C=Cc1ccccc1 [cinnamic acid] | 0.05 g/L |  |  |  | 
N[C@@H](Cc1ccccc1)C(=O)O [L-phenylalanine] | 8 g/L | 0.05 M | 0.1 M |  | 
N[C@@H](Cc1cccc(F)c1)C(=O)O [m-fluorophenylalanine] | 1 g/L |  |  | only a slight growth | 
NC(Cc1ccc(F)cc1)C(=O)O (racemic) [DL-p-fluorophenylalanine] | 2 g/L |  |  |  | 1 mg/mL
